According to ChEMBL document CHEMBL3785011, “New IKK inhibitors: Synthesis of new imidazo[1,2-a]quinoxaline derivatives using microwave assistance and biological evaluation as IKK inhibitors” (Eur J Med Chem, 2016):
Active and inactive are the calls of the source. No cut-off for these calls is given here.

Tests used:
[1] = target: T1, Inhibitor of nuclear factor kappa-B kinase subunit alpha (Homo sapiens) (UniProt O15111); test: Inhibition of human recombinant His tagged IKK1 expressed in baculovirus at 10 uM after 60 mins by Adapta assay
T1 sequence (whole entry): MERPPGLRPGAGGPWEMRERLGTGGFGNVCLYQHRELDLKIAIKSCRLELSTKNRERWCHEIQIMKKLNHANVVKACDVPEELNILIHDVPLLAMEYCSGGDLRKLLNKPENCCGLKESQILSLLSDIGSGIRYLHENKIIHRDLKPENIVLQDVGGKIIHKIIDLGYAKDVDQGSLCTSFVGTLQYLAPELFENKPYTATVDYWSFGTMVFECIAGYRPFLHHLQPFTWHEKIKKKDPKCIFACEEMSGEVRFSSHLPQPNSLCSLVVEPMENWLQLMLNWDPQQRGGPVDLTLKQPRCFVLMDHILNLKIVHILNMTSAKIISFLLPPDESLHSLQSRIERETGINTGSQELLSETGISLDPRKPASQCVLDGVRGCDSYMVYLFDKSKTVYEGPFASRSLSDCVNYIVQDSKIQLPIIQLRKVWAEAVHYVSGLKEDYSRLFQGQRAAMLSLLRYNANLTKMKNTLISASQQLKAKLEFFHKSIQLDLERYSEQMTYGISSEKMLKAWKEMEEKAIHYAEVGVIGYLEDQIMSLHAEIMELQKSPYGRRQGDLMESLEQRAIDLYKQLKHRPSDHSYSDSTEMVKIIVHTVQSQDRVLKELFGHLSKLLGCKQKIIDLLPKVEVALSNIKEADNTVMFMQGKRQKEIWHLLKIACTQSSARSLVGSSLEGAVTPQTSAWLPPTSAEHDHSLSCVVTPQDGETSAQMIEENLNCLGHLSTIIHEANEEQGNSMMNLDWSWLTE

[2] = target: T2, Inhibitor of nuclear factor kappa-B kinase subunit beta (Homo sapiens) (UniProt O14920); test: Inhibition of human recombinant GST tagged IKK2 expressed in baculovirus using Ser/Thr05 peptide as substrate at 10 uM after 60 mins by Z-LYTE assay
T2 sequence (whole entry): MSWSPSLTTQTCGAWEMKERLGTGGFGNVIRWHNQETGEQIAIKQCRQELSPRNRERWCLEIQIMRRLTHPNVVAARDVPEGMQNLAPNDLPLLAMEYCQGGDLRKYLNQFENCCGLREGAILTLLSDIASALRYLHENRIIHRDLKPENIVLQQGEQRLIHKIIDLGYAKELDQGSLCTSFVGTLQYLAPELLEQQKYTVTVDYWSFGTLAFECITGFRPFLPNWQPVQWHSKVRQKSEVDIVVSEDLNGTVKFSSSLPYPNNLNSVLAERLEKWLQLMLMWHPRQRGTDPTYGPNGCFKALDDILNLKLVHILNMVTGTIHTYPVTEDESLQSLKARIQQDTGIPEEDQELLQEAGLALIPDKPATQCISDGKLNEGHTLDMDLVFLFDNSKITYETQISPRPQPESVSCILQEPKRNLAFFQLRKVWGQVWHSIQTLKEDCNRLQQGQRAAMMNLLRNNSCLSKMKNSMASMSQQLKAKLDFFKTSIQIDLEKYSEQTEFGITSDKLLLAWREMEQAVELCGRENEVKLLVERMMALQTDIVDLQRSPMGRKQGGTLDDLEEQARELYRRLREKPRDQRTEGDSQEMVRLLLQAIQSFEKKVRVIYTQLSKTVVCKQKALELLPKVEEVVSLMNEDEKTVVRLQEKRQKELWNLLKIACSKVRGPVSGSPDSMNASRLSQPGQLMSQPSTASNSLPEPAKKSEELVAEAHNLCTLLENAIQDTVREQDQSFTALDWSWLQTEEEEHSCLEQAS

[3] = target: T3, Inhibitor of nuclear factor kappa-B kinase subunit beta (Homo sapiens, UniProt O14920); test: Inhibition of human recombinant GST tagged IKK2 expressed in baculovirus using Ser/Thr05 peptide as substrate after 60 mins by Z-LYTE assay
T3 sequence (O14920 whole entry): T2 sequence (whole entry)

Structure (SMILES) | inhibition [1] | inhibition [2] | IC50 [3]
CNc1nc2ccccc2n2c(-c3cccc(OC)c3)cnc12 | 13% | 2% | 
CNc1nc2cc(C)ccc2n2c(-c3cccc(OC)c3)cnc12 | 7% | inactive | 
CNc1nc2ccccc2n2ccnc12 | 7% | 54% | 
CNc1nc2ccccc2n2c(C)cnc12 | 7% | 61% | 
CNc1nc2ccc(C)cc2n2c(-c3cccc(OC)c3)cnc12 | 3% | 3% | 
CNc1nc2ccc(C)cc2n2c(Br)cnc12 | 13% | 72% | 324 nM
Cc1ccc2nc(NCCN)c3ncc(C)n3c2c1 | 8% | 64% | 
CNc1nc2ccc(C)cc2n2c(C)cnc12 | 1% | 65% | 773 nM

Further lines, results first:

inhibition [1] | inhibition [2] | IC50 [3] | Structure (SMILES)
19% | 57% |  | CNc1nc2cc(C)ccc2n2c(C)cnc12
9% | 64% | 579 nM | CNc1nc2ccc(C)cc2n2ccnc12
9% | 50% |  | CNc1nc2cc(C)ccc2n2ccnc12
23% | 60% |  | CNc1nc2ccccc2n2c(Br)cnc12
26% | 54% |  | CNc1nc2cc(C)ccc2n2c(Br)cnc12
